Measurements: patent US4902678A, “Anti-viral compositions” (priority 1988, dated 1990)

Columns and labels:
human herpesviruses = conditions: cited from earlier work
[1] = system: herpes virus-specific thymidine kinase (TK); conditions: hypothesis on mode of action; cited from earlier work
[2] = system: herpes virus-specific DNA-polymerase (DP); conditions: hypothesis on mode of action; cited from earlier work
[3] = system: Cellular TK and DP enzymes; conditions: cited from earlier work
[4] = system: HSV mutants lacking the ability to induce DP (DP-mutants); conditions: cited from earlier work
normal host cells = conditions: cited from earlier work
HSV-1-Patton = assay: Plaque reduction / viral plaque titration, HSV-1-Patton in HFF cells
Experimental: (§1) Human fetal fibroblasts (HFF) derived from fetal tissues were used in this study. Cells were grown and maintained in Basal Medium Eagle (BME) supplemented with 0.112% sodium bicarbonate, 2mML-glutamine, 2mg % Neomycin and 20% (vol/vol) calf serum.
(§2) A viral plaque titration method (Roizman and Roane, 1961) was used to deteremine the titer of the HSV strain. Tissue culture dishes (35 by 10mm, Corning) were seeded with cells and used for assays when they were approximately 75% monolayer. Volumes (0.2ml) of logarithmic dilutions of the virus strain were inoculated onto each of two tissue culture dishes and adsorbed for 1 hr with intermittent shaking, the inoculum was removed and 2ml of 20% BME containing 0.5% human immune serum globulin was added. After a 48 hr. incubation period at 36° C. in a 5% CO2 atmosphere, the overlay medium was removed, and the cell sheets were stained with a 0.05% aqueous crystal violet solution. The plaque numbers were counted with the aid of a Nikon profile projector which magnified the dishes 10X. Duplicate results were averaged, and the number of plaque-forming units (PFU) was calculated. The virus titre is thus expressed as a number of plaque forming units to be seen after growth under these conditions.
As antiviral drugs in these experiments, there were used acycloguanosine (ACG), phosphonoacetic acid (PAA), bromovinyl deoxyuridine (BVDU), phosphonoformic acid (PFA) and 9-[[2-hydroxy-1-(hydroxymethyl)ethoxy]methyl]guanine (G*). Stock solutions, 3mg/ml, of each drug were prepared as follows, kept at -20° C., and appropriate dilutions thereof were made in 20% BME just before usage:
In order to make comparisons between the activities of the various drugs and combinations, experiments were conducted by plaque titration to determine for each drug its viral ED-50 (i.e. the concentration thereof which inhibits HSV plaque formation by 50% in the HFF cells, as compared with cell cultures in the absence of the drug). For this purpose, tissue culture dishes (35 by 10 mm) with HFF cell monolayers at 75% confluence were inoculated with approximately 50 plaque-forming units of virus per 0.2 ml, and the virus was allowed to adsorb for 1 hr with intermittent shaking. After removal of the inoculum, 2 ml of 20% BME with 0.5% immune globulin and threefold dilutions of the appropriate drug were added to duplicate dishes. One set of dishes received no drug and was later used for the "no-drug control". After a 48 hr incubation period at 36° C. in a 5% CO2 atmosphere, the overlay medium was removed, the cells were stained as described above, and plaques were counted. After averaging the counts of duplicate plates, the fraction of plaques emerging in the presence of each drug dilution was calculated as a percent of the control. Each drug titration was plotted on semilogarithmic graph paper, with the number of plaques per dish as vertical axis and the drug concentration as horizontal axis. The viral ED-50 concentration was that amount of drug per ml of overlay medium that inhibited plaque numbers by 50%, compared with no-drug controls, and this was read off the graphic plot of the data.
Then combinations of the drugs were tested for activity by viral plaque titration, at concentrations which were multiples of the ED-50, of the individual drugs. In combinations involving G*, BVDU and AGC, a concentration ten times that of its ED-50 was used in the combination. […] In respect of PAA, a concentration of five times ED-50 was used, to avoid cell toxicity problems.

[5] = system: HSV mutants lacking the ability to induce DP (DP-mutants); assay: Activity against HSV mutants lacking the ability to induce DP (statement); parameters: species or system Herpes simplex virus
HSV-2-EL 1 = conditions: Table 3, HFF cells, G* 2.0 μg/ml, PAA 76 μg/ml, alone or combined; for Virus titer: no-drug control 170
Experimental: as §1
(§3) HSV-2-EL 1, HSV-2-EL 3, HSV-2-EL 4, HSV-2-EL 6, HSV-1-EL 11 and HSV-1-227 are recent clinical isolates.
as §2
(§4) Then combinations of the drugs were tested for activity by viral plaque titration, at concentrations which were multiples of the ED-50, of the individual drugs. In combinations involving G*, BVDU and AGC, a concentration ten times that of its ED-50 was used in the combination. This was intended to ensure a concentration sufficiently high to limit the number of partially drug-resistant virus plaques to a small fraction in respect of each drug of the combination. In respect of PAA, a concentration of five times ED-50 was used, to avoid cell toxicity problems. The drugs were individually plaque titrated at the same concentrations for comparison purposes.
(§5) The experiments described in Examples 1 and 2 were essentially repeated, but using the drugs G* and PAA alone and in combinations against samples of HFF cells each infected with one of six HSV strains, two of which were type 1 and four of which were type 2. Plaque titration methods as described above were used.

HSV-1-EL 11 = conditions: Table 3, HFF cells, G* 0.4 μg/ml, PAA 25 μg/ml, alone or combined; for Virus titer: no-drug control 8.0
Experimental: as §1, §3, §2, §4, §5

HSV-1-227 = assay: Viral plaque titration, HSV-1-227 in HFF cells; conditions: Table 3, G* 2.0 μg/ml, PAA 80 μg/ml, alone or combined; for Virus titer: no-drug control 28
Experimental: as §1, §3, §2, §4, §5

HSV-2-EL 4 = assay: Viral plaque titration, HSV-2-EL 4 in HFF cells; conditions: alone or combined; for Virus titer: no-drug control 750
Experimental: as §1, §3, §2, §4
(§6) In this example, combinations of G* and phosphonoformic acid PFA were tested, by plaque titration methods, for activity against a variety of herpesvirus strains in HFF cells, using procedures previously described. A stock solution of PFA was made up ahead of time, by dissolving 3 mg PFA in 1 ml of 20% BME, and stored at -20° C. It was appropriately diluted in 20% BME just before usage. Two herpesvirus type 2 strains and one herpesvirus type 1 strain were tested.
as §5

HSV-2-EL 6 = assay: Viral plaque titration, HSV-2-EL 6 in HFF cells; conditions: alone or combined
Experimental: as §1, §3, §2, §4, §6, §5

HSV-2-EL 3 = assay: Viral plaque titration, HSV-2-EL 3 in HFF cells; conditions: Table 3, G* 2.0 μg/ml, PAA 82 μg/ml, alone or combined; for Virus titer: no-drug control 77
Experimental: as §1, §3, §2, §4, §5

[6] = topical formulation, drug concentrations in excess of 100mM; cited from earlier work
[7] = Table 1, multiplicity of infection less than one, G* 1.2, BVDU 0.11, ACG 2.0, PAA 250 μg/ml alone, same concentrations in combinations, no-drug control 147
[8] = Table 1, ratio of control titer to drug titer, G* 1.2, BVDU 0.11, ACG 2.0, PAA 250 μg/ml alone, same concentrations in combinations
[9] = Table 2, G* 3.0 μg/ml, PFA 80 μg/ml
[10] = Table 3, G* 2.0 μg/ml, PAA 90 μg/ml
[11] = Table 2, G* 0.7 μg/ml, PFA 80 μg/ml
[12] = Table 2, G* 0.7 μg/ml, PFA 80 μg/ml, no-drug control 150
[13] = Table 3, G* 0.6 μg/ml, PAA 90 μg/ml
[14] = Table 3, G* 0.6 μg/ml, PAA 90 μg/ml, no-drug control 180
[15] = Table 2, G* 0.7 μg/ml, PFA 80 μg/ml, alone or combined
[16] = Table 2, G* 0.7 μg/ml, PFA 80 μg/ml, alone or combined, no-drug control 3400

## O=CC[C@@H](O)[C@H](O)[C@H](O)CO [2DB, 2-deoxy-D-glucose]
Human herpesviruses
  Activity against herpesviruses in prior art: some demonstrated activity against human herpesviruses

## Nc1nc2c(ncn2COCCO)c(=O)[nH]1 [ACG, 9-[2-hydroxyethoxymethyl]guanine]
[1]
  Interaction with viral thymidine kinase: interaction with the herpes virus-specific thymidine kinase (TK) resulting in phosphorylation of the acycloguanosine
[2]
  Interaction with viral DNA polymerase: inhibits the action of the herpes virus-specific DNA-polymerase (DP)
[3]
  Effect on cellular TK and DP enzymes: only slightly affected
[4]
  Resistance of DP-mutants of HSV to drug: highly resistant
Human herpesviruses
  Activity against herpesviruses in prior art: relatively high antiviral activity
Normal host cells
  Toxicity for uninfected cells: relatively low toxicity for uninfected cells
HSV-1-Patton; [7]
  Virus titer: 4.7 PFU/ml × 10^5
HSV-1-Patton; [8]
  Fold titer reduction: 31 fold

## O=c1[nH]c(=O)n([C@H]2C[C@H](O)[C@@H](CO)O2)cc1/C=C/Br [BVDU, bromovinyl deoxyuridine]
HSV-1-Patton; [7]
  Virus titer: 2.1 PFU/ml × 10^5
HSV-1-Patton; [8]
  Fold titer reduction: 70 fold

## Nc1nc2c(ncn2COC(CO)CO)c(=O)[nH]1 [G*]
[5]
  Inhibition of DP-mutants of HSV: able to inhibit HSV mutants lacking the ability to induce DP
HSV-2-EL 1
  Fold titer reduction: 19 fold
  Virus titer: 8.9 pfu/ml × 10^5
HSV-1-EL 11
  Fold titer reduction: 22 fold
  Virus titer: 0.37 pfu/ml × 10^5
[1]
  Interaction with viral thymidine kinase: inhibits the activity of the viral thymidine kinase enzyme
[2]
  Interaction with viral DNA polymerase: not involved in the activity of virus-specific DNA-polymerase
HSV-1-227
  Fold titer reduction: 110 fold
  Virus titer: 0.25 pfu/ml × 10^5
HSV-2-EL 4; [9]
  Fold titer reduction: 36 fold
  Virus titer: 21 pfu/ml × 10^5
HSV-2-EL 4; [10]
  Fold titer reduction: 130 fold
  Virus titer: 5.9 pfu/ml × 10^5
HSV-2-EL 6; [11]
  Fold titer reduction: 3.8 fold
HSV-2-EL 6; [12]
  Virus titer: 40 pfu/ml × 10^5
HSV-2-EL 6; [13]
  Fold titer reduction: 200 fold
HSV-2-EL 6; [14]
  Virus titer: 0.90 pfu/ml × 10^5
HSV-2-EL 3
  Fold titer reduction: 7.7 fold
  Virus titer: 10.0 pfu/ml × 10^5
HSV-1-Patton; [7]
  Virus titer: 1.1 PFU/ml × 10^5
HSV-1-Patton; [8]
  Fold titer reduction: 130 fold
HSV-1-Patton; [15]
  Fold titer reduction: 24 fold
HSV-1-Patton; [16]
  Virus titer: 140 pfu/ml × 10^5

## O=c1[nH]c(=O)n([C@H]2C[C@H](O)[C@@H](CO)O2)cc1I [IDU, 5-iododeoxyuridine]
Human herpesviruses
  Activity against herpesviruses in prior art: effective only against herpes infections of the eyes
Normal host cells; prior art
  Side effects / toxicity to normal cells: undesirable side effects, associated with toxicity to normal cells

## O=C(O)CP(=O)(O)O [PAA, phosphonoacetic acid]
HSV-2-EL 1
  Fold titer reduction: 500 fold
  Virus titer: 0.34 pfu/ml × 10^5
HSV-1-EL 11
  Fold titer reduction: 2.9 fold
  Virus titer: 2.8 pfu/ml × 10^5
[2]
  Interaction with viral DNA polymerase: interference with viral DNA polymerase, not viral thymidine kinase
[4]
  Resistance of DP-mutants of HSV to drug: highly resistant
[6]
  Skin irritation: skin irritant
Human herpesviruses
  Activity against herpesviruses in prior art: some demonstrated activity against human herpesviruses
HSV-1-227
  Fold titer reduction: 26 fold
  Virus titer: 1.1 pfu/ml × 10^5
HSV-2-EL 4; [10]
  Fold titer reduction: 7500 fold
  Virus titer: 0.10 pfu/ml × 10^5
HSV-2-EL 6; [13]
  Fold titer reduction: 5.8 fold
HSV-2-EL 6; [14]
  Virus titer: 31.0 pfu/ml × 10^5
HSV-2-EL 3
  Fold titer reduction: 210 fold
  Virus titer: 0.36 pfu/ml × 10^5
HSV-1-Patton; [7]
  Virus titer: 3.2 PFU/ml × 10^5
HSV-1-Patton; [8]
  Fold titer reduction: 50 fold

## O=C(O)P(=O)(O)O [PFA, phosphonoformic acid]
[2]
  Interaction with viral DNA polymerase: interference with viral DNA polymerase, not viral thymidine kinase
[6]
  Skin irritation: do not appear harmful
Human herpesviruses
  Activity against herpesviruses in prior art: some demonstrated activity against human herpesviruses
HSV-2-EL 4; [9]
  Fold titer reduction: 2,700 fold
  Virus titer: 0.28 pfu/ml × 10^5
HSV-2-EL 6; [11]
  Fold titer reduction: 3.1 fold
HSV-2-EL 6; [12]
  Virus titer: 48 pfu/ml × 10^5
HSV-1-Patton; [15]
  Fold titer reduction: 4.5 fold
HSV-1-Patton; Table 2, G* 0.7 μg/ml, PFA 80 μg/ml, alone or combined, listed as PFF
  Fold titer reduction: 750 fold
HSV-1-Patton; [16]
  Virus titer: 750 pfu/ml × 10^5

## Nc1ncnc2c1ncn2[C@@H]1O[C@H](CO)[C@@H](O)[C@@H]1O [ara-A, Adenine arabinoside]
Human herpesviruses
  Activity against herpesviruses in prior art: some demonstrated activity against human herpesviruses
